{"source": "patent US20050130237A1", "about": "“High throughput screening method for compounds with non-, pro-, or anti-apoptotic or proliferative or necrotic activity” (priority 2002, published 2005)", "format_in_all_cases": "cell-based, human", "key": {"HeLa cells [1]": {"test_system": "HeLa cells", "experiment": "Primary screening: overall EGFP relative fluorescence activity per well, fluorescence microplate reader, 96-well plates", "conditions": "values under 0.8 = pro-apoptotic and/or necrotic", "text": "A representative primary screening with standard experimental set-up, where 16 commercially available anti-cancer drugs have been tested on five different EGFP expressing cell lines (HeLa, KB, A20, Ramos and Jurkat) in 96-well microtiter plates is shown in FIG. 2. Differential susceptibility regarding induction of apoptosis and/or necrosis after treatement with 5-Fluorouracil (5-FU), Gemzar, Methotrexate, Eloxantin, Detimedac, Endoxan, Paraplatin, Navelbine, Velbe, Taxotere, Taxol, Adriblastin, Bleomycin, Campto, Etopophos and Farmorubicin is shown. Measurements after 24 h and 48 h were performed with a fluorescence microplate reader, which measures the overall fluorescence activity in a single well. Used compound concentrations are indicated by a fraction of the original concentration.\nThe setting of a cut-off value, corresponding to 0.8 in this case, allows the clear discrimination between two main groups of different activities. […] According to these intermediate values between 0 and 0.8 measured by a fluorescence microplate reader, it can hardly be discriminated between the subpopulations of apoptotic and necrotic cells within the same well. […]\nImmediately after the addition of the compounds to the cells the zero fluorescence value (t=0 h) was determined by using a fluorescence microplate reader in order to be able to normalize the fluorescence activities. […]"}, "HeLa cells [2]": {"test_system": "HeLa cells", "experiment": "Secondary screening: FACS analysis discriminating apoptotic and necrotic activity of anti-cancer drugs", "conditions": "for necrotic activity (FACS histograms): necrosis evident after exposure longer than 24 h, followed up to 48 h, Navelbine, Velbe, Campto 1/1000 diluted, Adriblastin 1/2000 diluted", "text": "For this purpose HeLa cells have been treated with typical anti-cancer drugs of different mode of actions. Navelbine and Velbe, two typical representatives of microtubules interfering drugs and Adriblastin and Campto, topo-isomerase inhibitors, which interfere with DNA synthesis.\nArrows indicate regions with either necrotic cells (left arrow) or apoptotic cells (middle arrow) or proliferating/living cells (right arrow). […] This fact became evident after exposure of the cells for longer than 24 h.\nHeLa cells have been treated with typical anti-cancer drugs of different mode of actions. Navelbine and Velbe, two typical representatives of microtubules interfering drugs and Adriblastin and Campto, topo-isomerase inhibitor, which interfere with DNA synthesis. Histograms of FACS analysis of cells treated either with Navelbine (1/1000 diluted), Velbe (1/1000 diluted), Adriblastin (1/2000 diluted) and Campto (1/1000 diluted) are shown in FIG. 4. Arrows indicate regions with either necrotic cells (left arrow), apoptotic cells (middle arrow) and proliferating cells (right arrow). […] This fact became evident after exposure of the cells for longer than 24 h."}, "JurkatGFP cells": {"test_system": "JurkatGFP cells", "experiment": "Anti-apoptotic activity after induction of apoptosis by serially diluted soluble FasL, fluorescence microplate reader", "conditions": "24 h incubation, compared with control peptide zFA", "text": "The activity of an anti-apoptotic compound, e.g. the pan caspase inhibitor zVADfmk, has been tested on JurkatGFP cells after induction of apoptosis by serially diluted soluble FasL and measured by a fluorescence microplate reader. […] The bars indicate standard deviations, which have been determined by measuring 6 single values for each datapoint."}}, "note": "Peptide text beside a SMILES is read from it. * marks the point of attachment. Cbz = O=C(OCc1ccccc1)*; CH2F = FC*"}
{"smiles": "COc1cccc2c1C(=O)c1c(O)c3c(c(O)c1C2=O)C[C@@](O)(C(=O)CO)C[C@@H]3O[C@H]1C[C@H](N)[C@H](O)[C@H](C)O1", "note": "[Adriblastin]", "values": [{"measurement": "relative fluorescence activity (intermediate value, cut-off 0.8)", "setting": "HeLa cells [1]; highest concentration 1/5 k of original concentration", "value": 0.53}, {"measurement": "necrotic activity (FACS histograms)", "setting": "HeLa cells [2]", "value": "do not show any tendency for necrotic activity"}, {"measurement": "apoptotic activity (FACS histograms)", "setting": "HeLa cells [2]; single-cell flow cytometry", "value": "only induce apoptosis"}]}
{"smiles": "CCc1c2c(nc3ccc(OC(=O)N4CCC(N5CCCCC5)CC4)cc13)-c1cc3c(c(=O)n1C2)COC(=O)[C@]3(O)CC", "note": "[Campto]", "values": [{"measurement": "necrotic activity (FACS histograms)", "setting": "HeLa cells [2]", "value": "do not show any tendency for necrotic activity"}]}
{"smiles": "CCC1=C[C@@H]2CN(C1)Cc1c([nH]c3ccccc13)[C@@](C(=O)OC)(c1cc3c(cc1OC)N(C)[C@H]1[C@@](O)(C(=O)OC)[C@H](OC(C)=O)[C@]4(CC)C=CCN5CC[C@]31[C@@H]54)C2", "note": "[Navelbine]", "values": [{"measurement": "relative fluorescence activity (intermediate value, cut-off 0.8)", "setting": "HeLa cells [1]; highest concentration 1/10 k of original concentration", "value": 0.49}, {"measurement": "necrotic activity (FACS histograms)", "setting": "HeLa cells [2]", "value": "strong tendency to induce necrosis"}]}
{"smiles": "CC[C@]1(O)C[C@@H]2CN(CCc3c([nH]c4ccccc34)[C@@](C(=O)OC)(c3cc4c(cc3OC)N(C)[C@H]3[C@@](O)(C(=O)OC)[C@H](OC(C)=O)[C@]5(CC)C=CCN6CC[C@]43[C@@H]65)C2)C1", "note": "[Velbe]", "values": [{"measurement": "necrotic activity (FACS histograms)", "setting": "HeLa cells [2]", "value": "strong tendency to induce necrosis"}]}
{"smiles": "COC(=O)C[C@H](NC(=O)[C@H](C)NC(=O)[C@@H](NC(=O)OCc1ccccc1)C(C)C)C(=O)CF", "note": "[zVAD] (Cbz-Val-Ala-Asp(OMe)-CH2F)", "values": [{"measurement": "anti-apoptotic effect on the apoptotic activity of FasL", "setting": "JurkatGFP cells", "value": "clear inhibitory anti-apoptotic effect"}]}
